Legend:
Assay type in all cases: functional
M14 [1] = assay: Cytotoxicity against human M14 cells assessed as cell growth at 10^-7 M after 48 hrs by SRB assay; details: M14, 48 h, read-out: Activity
HT-29 = assay: Cytotoxicity against human HT-29 cells assessed as cell growth at 10^-7 M after 48 hrs by SRB assay; details: HT-29, 48 h, read-out: Activity
NCI-H23 [2] = assay: Cytotoxicity against human NCI-H23 cells assessed as cell growth at 10^-7 M after 48 hrs by SRB assay; details: NCI-H23, 48 h, read-out: Activity
SR [3] = assay: Cytotoxicity against human SR cells assessed as cell growth at 10^-7 M after 48 hrs by SRB assay; details: read-out: Activity
RPMI-8226 = assay: Cytotoxicity against human RPMI8226 cells assessed as cell growth at 10^-7 M after 48 hrs by SRB assay; details: RPMI-8226, 48 h, read-out: Activity
[4] = Cytotoxicity against human Hs578T cells assessed as cell growth at 10^-8 M after 48 hrs by SRB assay; details: Hs-578T, read-out: Activity
SK-MEL-5 = assay: Cytotoxicity against human SK-MEL-5 cells assessed as cell growth at 10^-4 M after 48 hrs by SRB assay; details: SK-MEL-5, 48 h, read-out: Activity
SK-MEL-28 [5] = assay: Cytotoxicity against human SK-MEL-28 cells assessed as cell growth at 10^-4 M after 48 hrs by SRB assay; details: SK-MEL-28, 48 h, read-out: Activity
SF-539 = assay: Cytotoxicity against human SF539 cells assessed as cell growth at 10^-4 M after 48 hrs by SRB assay; details: SF-539, 48 h, read-out: Activity
MOLT-4 = assay: Cytotoxicity against human MOLT4 cells assessed as cell growth at 10^-4 M after 48 hrs by SRB assay; details: MOLT-4, 48 h, read-out: Activity
RXF 393 [6] = assay: Cytotoxicity against human RXF393 cells assessed as cell growth at 10^-8 M after 48 hrs by SRB assay; details: RXF 393, 48 h, read-out: Activity
SW-620 [7] = assay: Cytotoxicity against human SW620 cells assessed as cell growth at 10^-8 M after 48 hrs by SRB assay; details: SW-620, 48 h, read-out: Activity
COLO 205 = assay: Cytotoxicity against human COLO205 cells assessed as cell growth at 10^-8 M after 48 hrs by SRB assay; details: COLO 205, 48 h, read-out: Activity
NCI-H322M = assay: Cytotoxicity against human NCI-H322M cells assessed as cell growth at 10^-8 M after 48 hrs by SRB assay; details: read-out: Activity
NCI-H23 [8] = assay: Cytotoxicity against human NCI-H23 cells assessed as cell growth at 10^-8 M after 48 hrs by SRB assay; details: NCI-H23, 48 h, read-out: Activity
HOP-92 = assay: Cytotoxicity against human HOP92 cells assessed as cell growth at 10^-8 M after 48 hrs by SRB assay; details: HOP-92, 48 h, read-out: Activity
HOP-62 = assay: Cytotoxicity against human HOP62 cells assessed as cell growth at 10^-8 M after 48 hrs by SRB assay; details: HOP-62, 48 h, read-out: Activity
HL-60(TB) = assay: Cytotoxicity against human HL-60(TB) cells assessed as cell growth at 10^-8 M after 48 hrs by SRB assay; details: HL-60, 48 h, read-out: Activity
T47D = assay: Cytotoxicity against human T47D cells after 48 hrs by SRB assay
PC-3 = assay: Cytotoxicity against human PC3 cells after 48 hrs by SRB assay; details: PC-3, 48 h
DU-145 [9] = assay: Cytotoxicity against human DU145 cells after 48 hrs by SRB assay; details: DU-145, 48 h
[10] = Cytotoxicity against human UO31 cells after 48 hrs by SRB assay; details: UO-31, 48 h
RXF 393 [11] = assay: Cytotoxicity against human RXF393 cells after 48 hrs by SRB assay; details: RXF 393, 48 h
IGROV-1 = assay: Cytotoxicity against human IGROV1 cells after 48 hrs by SRB assay; details: IGROV-1, 48 h
SK-MEL-2 = assay: Cytotoxicity against human SK-MEL-2 cells after 48 hrs by SRB assay; details: SK-MEL-2, 48 h
SF-295 = assay: Cytotoxicity against human SF295 cells after 48 hrs by SRB assay; details: SF-295, 48 h
NCI-H460 = assay: Cytotoxicity against human NCI-H460 cells after 48 hrs by SRB assay; details: NCI-H460, 48 h
BT-549 = assay: Cytotoxicity against human BT549 cells assessed as cell growth at 10^-6 M after 48 hrs by SRB assay; details: BT-549, 48 h, read-out: Activity
MDA-MB-231 = assay: Cytotoxicity against human MDA-MB-231 cells assessed as cell growth at 10^-6 M after 48 hrs by SRB assay; details: MDA-MB-231, 48 h, read-out: Activity
SN12C = assay: Cytotoxicity against human SN12C cells assessed as cell growth at 10^-6 M after 48 hrs by SRB assay; details: read-out: Activity
SK-MEL-28 [12] = assay: Cytotoxicity against human SK-MEL-28 cells assessed as cell growth at 10^-6 M after 48 hrs by SRB assay; details: SK-MEL-28, 48 h, read-out: Activity
MDA-MB-435 = assay: Cytotoxicity against human MDA-MB-435 cells assessed as cell growth at 10^-6 M after 48 hrs by SRB assay; details: MDA-MB-435, 48 h, read-out: Activity
M14 [13] = assay: Cytotoxicity against human M14 cells assessed as cell growth at 10^-6 M after 48 hrs by SRB assay; details: M14, 48 h, read-out: Activity
LOX IMVI = assay: Cytotoxicity against human LOXIMVI cells assessed as cell growth at 10^-6 M after 48 hrs by SRB assay; details: read-out: Activity
SW-620 [14] = assay: Cytotoxicity against human SW620 cells assessed as cell growth at 10^-6 M after 48 hrs by SRB assay; details: SW-620, 48 h, read-out: Activity
SR [15] = assay: Cytotoxicity against human SR cells assessed as cell growth at 10^-6 M after 48 hrs by SRB assay; details: read-out: Activity
DU-145 [16] = assay: Cytotoxicity against human DU145 cells assessed as cell growth at 10^-7 M after 48 hrs by SRB assay; details: DU-145, 48 h, read-out: Activity
RXF 393 [17] = assay: Cytotoxicity against human RXF393 cells assessed as cell growth at 10^-7 M after 48 hrs by SRB assay; details: RXF 393, 48 h, read-out: Activity
OVCAR-8 = assay: Cytotoxicity against human OVCAR8 cells assessed as cell growth at 10^-7 M after 48 hrs by SRB assay; details: OVCAR-8, 48 h, read-out: Activity

Compound `C=CCn1c(C)nc2ccc(Nc3nc(Nc4ccc5nc(C)n(CC=C)c5c4)c4ccccc4n3)cc21` has a growth at 0.1 µM (M14 [1]) of 94%, a growth at 0.1 µM (HT-29) of 101% and a growth at 0.1 µM (NCI-H23 [2]) of 91%. It also gave a growth at 0.1 µM (SR [3]) of 93%, a growth at 0.1 µM (RPMI-8226) of 99% and a growth at 0.01 µM [4] of 95%. For the same compound, the growth at 100 µM (SK-MEL-5) was -24%, the growth at 100 µM (SK-MEL-28 [5]) was -39% and the growth at 100 µM (SF-539) was -61%. The growth at 100 µM (MOLT-4) was 2%, the growth at 0.01 µM (RXF 393 [6]) was 95% and the growth at 0.01 µM (SW-620 [7]) was 98%. For the same compound, the growth at 0.01 µM (COLO 205) was 105%, the growth at 0.01 µM (NCI-H322M) was 89% and the growth at 0.01 µM (NCI-H23 [8]) was 96%. The growth at 0.01 µM (HOP-92) was 92%, the growth at 0.01 µM (HOP-62) was 99% and the growth at 0.01 µM (HL-60(TB)) was 97%. For the same compound, the GI50 (T47D) was 1540 nM, the TGI (T47D) was 3.18 µM and the GI50 (PC-3) was 1370 nM. For the same compound, the TGI (PC-3) was 2900 nM, the GI50 (DU-145 [9]) was 1850 nM and the LC50 (50% lethal concentration) (DU-145 [9]) was 5.79 µM. The TGI (DU-145 [9]) was 3.27 µM, the GI50 [10] was 1360 nM and the TGI [10] was 2880 nM. The GI50 (RXF 393 [11]) was 1800 nM, the TGI (RXF 393 [11]) was 3.28 µM and the GI50 (IGROV-1) was 1830 nM. The TGI (IGROV-1) was 3.4 µM, the GI50 (SK-MEL-2) was 1960 nM and the TGI (SK-MEL-2) was 3.54 µM. It also gave a GI50 (SF-295) of 1840 nM, a TGI (SF-295) of 3.53 µM and a GI50 (NCI-H460) of 1890 nM. The TGI (NCI-H460) was 3.7 µM, the growth at 1 µM (BT-549) was 86% and the growth at 1 µM (MDA-MB-231) was 72%. It also gave a growth at 1 µM (SN12C) of 90%, a growth at 1 µM (SK-MEL-28 [12]) of 102% and a growth at 1 µM (MDA-MB-435) of 92%. For the same compound, the growth at 1 µM (M14 [13]) was 88%, the growth at 1 µM (LOX IMVI) was 83% and the growth at 1 µM (SW-620 [14]) was 80%. The growth at 1 µM (SR [15]) was 72%, the growth at 0.1 µM (DU-145 [16]) was 100% and the growth at 0.1 µM (RXF 393 [17]) was 96%. It also gave a growth at 0.1 µM (OVCAR-8) of 102%.
